Results as given in patent US20140134169A1, “Methods of Treating Ovarian Cancer with Dll4 Antagonists” (Regeneron Pharmaceuticals, Inc., priority 2012, published 2014).

Experiments:
human HCT116 tumor cells = assay: Growth of human HCT116 tumors in humanized Dll4 SCID mice (irinotecan study); assay type: in vivo
Experimental: (§1) Each mouse was implanted subcutaneously (sc) with 5×10^6 human HCT116 tumor cells. […] The mice were then treated with hFc, REGN421, irinotecan or combination of REGN421 and irinotecan. A total of 30 mice were divided into 6 groups (n=5 per cohort). The first group was treated sc with hFc at 2 mg/kg; the second group was treated sc with REGN421 at 2 mg/kg; the third and fourth groups were treated ip with irinotecan at 7.5 and 25 mg/kg, respectively; the fifth group was treated sc with REGN421 at 2 mg/kg and ip with irinotecan at 7.5 mg/kg; and the sixth group was treated sc with REGN421 at 2 mg/kg and ip with irinotecan at 25 mg/kg. REGN421 was administered every 3-4 days starting on day 15 and mice received three doses total. Irinotecan was administered every 3-4 days starting on day 15 and mice received three doses total.
(§2) To assess the effects of REGN421 and irinotecan as single agents or in combination treatments, the changes in tumor size (volume) are measured, starting three days before the initial REGN421 treatment, and then on the day of each agent treatment (days 15, 19, 22) and thereafter every 3-4 days until tumors reach ˜600 mm^3 in size. In vivo tumor size is calculated using the formula (length×width^2)/2.

A2780 cells = assay: A2780 ovarian xenograft (intraperitoneal) tumor growth inhibition; assay type: in vivo, human; conditions: SCID mice (native murine Dll4); REGN421 2.5 mg/kg 1x/week, mDll4Ab1 5 mg/kg 1x/week, VEGF-Trap 10 mg/kg 2x/week
Experimental: Ovarian tumor xenograft cells were implanted into humanized Dll4 SCID mice or vendor SCID mice (i.e., SCID mice expressing native murine Dll4). After implantation, mice were treated with REGN421 (anti-human Dll4 antibody, binds to human Dll4), mDll4Ab1 (anti-murine Dll4 antibody, binds to murine Dll4), or a human Fc domain control protein. In one study, mice were treated with VEGF-Trap, mDll4Ab1 or VEGF-Trap plus mDll4Ab1. TOV-112D cells (5×10^6) were implanted subcutaneously into the right flank of humanized Dll4 (n=4) or vendor SCID mice (n=7). Treatment with REGN421 (2.5 mg/kg, 1×/week) or mDll4Ab1 (5 mg/kg, 1×/week) vs. hFc control was initiated one week after tumor cell implantation. Animals were treated for 2 to 3 weeks. A2780 cells (2×10^6) were implanted intraperitoneally into humanized Dll4 or vendor SCID mice (n=4-5). Treatment with REGN421 (2.5 mg/kg, 1×/week) or mDll4Ab1 (5 mg/kg, 1×/week) vs. hFc control was initiated one week after tumor cell implantation. For the A2780 combination study, simultaneous treatment with mDll4Ab1 (5 mg/kg, 1×/week) and VEGF-Trap (10 mg/kg, 2×/week) was initiated one week after tumor cell implantation. A VEGF-Trap single treatment arm was included in this study. Animals bearing A2780 tumors were treated for 4-5 weeks. SKOV-3 cells (5×10^6) in matrigel were implanted subcutaneously and tumor-bearing animals (n=10) were dosed with REGN421 (2.5 mg/kg) and mDll4Ab1 (5 mg/kg) once weekly. OVCAR-3 cells (1×10^7) were implanted subcutaneously into the right flank of vendor SCID mice (n=7). Treatment with mDll4Ab1 (5 mg/kg 1×/week) vs. hFc control was initiated 66 days after tumor cell implantation. Animals were treated for a total of 5 weeks. Tumor growth inhibition (TGI) was measured as detailed above.

[1] = tested on: human VM-Cub1 tumor cells (bladder carcinoma cells); assay: Growth of human VM-Cub1 tumors implanted in humanized Dll4 SCID mice; assay type: in vivo; conditions: for TGI(%): day 32; for TGD: to 600 mm3
Experimental: The humanized Dll4 SCID mouse was made by replacing the entire extracellular domain of the mouse Dll4 gene with the corresponding extracellular region of the human Dll4 gene (7 kb) in embryonic stem (ES) cells. Homozygous hDll4 mice were generated and bred into SCID background.
A total of 45 mice were divided into nine groups (n=5 per cohort). The first group was treated subcutaneously (sc) with hFc at 2 mg/kg; the second and third groups were treated sc with REGN421 at 0.5 and 2 mg/kg, respectively; the fourth and fifth groups were treated intraperitoneally (ip) with cisplatin at 0.5 and 2 mg/kg, respectively; the sixth group was treated sc with REGN421 at 0.5 mg/kg and ip with cisplatin at 0.5 mg/kg; the seventh group was treated sc with REGN421 at 0.5 mg/kg and ip with cisplatin at 2 mg/kg; the eighth group was treated sc with REGN421 at 2 mg/kg and ip with cisplatin at 0.5 mg/kg; and the ninth group was treated sc with REGN421 at 2 mg/kg and ip with cisplatin at 2 mg/kg. REGN421 was administered every 3-4 days starting on day 14 and mice received three doses total. Cisplatin was administered every 24 hours starting on day 14; mice received four doses total.
To assess the effects of REGN421 and cisplatin as single agents or in combination treatments, the changes in tumor size were recorded. Tumor growth was measured three days before the initial REGN421 treatment, on the day of each REGN421 treatment (days 14, 17 and 21) and thereafter every 3-4 days until tumors reached ˜600 mm3 in size. In vivo tumor size was calculated using the formula (length×width2)/2 (FIG. 1 and Table 1).
Tumor Growth Inhibition, TGI, was determined by calculating the difference in tumor size for treated (T) versus vehicle control (C) tumor at the day the control cohort was euthanized (i.e., at day 32); TGI=[1−(Tfinal−Tinitial)/(Cfinal−Cinitial)]×100.
(§3) Tumor growth delay, TGD, was assessed as the difference in days between treated (T) versus control (C) tumors when each cohort reached a specified tumor size. The predetermined tumor size for this experiment was 600 mm^3.

[2] = tested on: human A549 tumor cells (non-small cell lung cancer); assay: Growth of human A549 tumors implanted in humanized Dll4 SCID mice; assay type: in vivo
Experimental: as §3
Each mouse was implanted subcutaneously (sc) with 5×10^6 human A549 tumor cells (non-small cell lung cancer or “NSCLC”). […] A total of 36 mice were divided into 6 groups (n=6 per cohort). The first group was treated sc with hFc at 2 mg/kg; the second group was treated sc with REGN421 at 2 mg/kg; the third and fourth groups were treated ip with cisplatin at 2.5 and 4.5 mg/kg, respectively; the fifth group was treated sc with REGN421 at 2 mg/kg and ip with cisplatin at 2.5 mg/kg; and the sixth group was treated sc with REGN421 at 2 mg/kg and ip with cisplatin at 4.5 mg/kg. REGN421 was administered every 3-4 days starting on day 29 and mice received three doses total. Cisplatin was administered every 24 hours starting on day 29 and mice received two doses total.
To assess the effects of REGN421 and cisplatin as single agents or in combination we measured tumor size (volume), beginning three days before the initial REGN421 treatment, on the day of each agent treatment (days 29, 30, 33, 36) and thereafter every 3-4 days until tumors reached ˜600 mm^3 in size.

[3] = tested on: human HCT116 tumor cells (CRC); assay: Growth of human HCT116 tumors in humanized Dll4 SCID mice (5-FU study); assay type: in vivo
Experimental: as §1, with “cells (CRC).” for “cells.”, “5-FU” for “irinotecan”, “5-FU.” for “irinotecan.”, “15” for “7.5”, “22” for “15”, “5-FU” for “Irinotecan”
as §2, with “5-FU” for “irinotecan”, “combination,” for “combination treatments,”, “were” for “are”, “beginning” for “starting”, “22, 26, 29)” for “15, 19, 22)”, “(length×width^2)/2 (FIG. 3 and Table 5).” for “(length×width^2)/2.”

[4] = tested on: human MDA-MB-231 breast tumor cells; assay: Growth of human MDA-MB-231 breast tumors implanted in SCID mice
Experimental: The effect of anti-Dll4 antibody in combination with docetaxel (TAXOTERE®, sanofi-aventis) on tumor growth was evaluated on tumors implanted in Severe Combined Immunodeficiency (SCID) mice. […] After the tumors were established in the mice (tumor size of ˜150-200 mm^3, approximately 45 days after implantation), mice were treated with hFc, docetaxel, Dll4 antibody, or a combination of docetaxel plus Dll4 antibody. A total of 25 tumor-bearing male mice were randomized into five groups (N=5 mice per group). […] Docetaxel and/or Dll4 antibody were administered on the same day. Animals were treated 2 times per week and received a total of 3 doses. Starting from the day of initial treatment, body weight and tumors were measured twice a week until the mice are euthanized. Mice were euthanized when tumors reached ˜600 mm^3 in size. Tumor size was calculated using the formula (length×width^2)/2.
The control tumors reached ˜600 mm^3 and were harvested on day 63.

[5] = tested on: rat C6 tumor cells (glioblastoma cells); assay: Growth of rat C6 tumors implanted in SCID mice; assay type: in vivo
Experimental: Each mouse was implanted subcutaneously (sc) with 1×10^6 rat C6 tumor cells (glioblastoma cells). […] Since these mice expressed mouse Dll4, the Dll4 Ab used in this experiment was prepared in-house, based on the published sequence (WO 2007/143689), and designated as REGN577. […] A total of 30 tumor-bearing male mice were randomized into six groups (N=5). […] Tumor size was calculated using the formula, (length×width2)/2.
TGI and TGD were determined (Table 3).

[6] = irinotecan 7.5 mg/kg ip (22.5 mg/kg total)
[7] = irinotecan 25 mg/kg ip (75 mg/kg total)
[8] = cisplatin 2.5 mg/kg ip (5 mg/kg total)
[9] = cisplatin 4.5 mg/kg ip (9 mg/kg total)
[10] = 5-FU 15 mg/kg ip (45 mg/kg total)
[11] = 5-FU 25 mg/kg ip (75 mg/kg total)
[12] = docetaxel 4.5 mg/kg iv (13.5 mg/kg total)
[13] = docetaxel 6 mg/kg iv (18 mg/kg total)

CCc1c2c(nc3ccc(OC(=O)N4CCC(N5CCCCC5)CC4)cc13)-c1cc3c(c(=O)n1C2)COC(=O)[C@]3(O)CC [Irinotecan, irinotecan]
TGD (human HCT116 tumor cells; [6]): 8 days | TGI(%) at Day 39 (human HCT116 tumor cells; [6]): 71.2% | TGD (human HCT116 tumor cells; [7]): 16 days | TGI(%) at Day 39 (human HCT116 tumor cells; [7]): 100.5%

VEGF-Trap: VEGF receptor-based chimeric molecule, SEQ ID NO:121 [reference compound]
% TGI (A2780 cells): 88%

N.N.[Cl][Pt][Cl] [Cisplatin, cis-diamminedichloroplatinum]
Euthanized ([1]; cisplatin 0.5 mg/kg/dose ip x4): 45 days | TGI(%) ([1]; cisplatin 0.5 mg/kg/dose ip x4): 60.7% | TGI(%) ([1]; cisplatin 0.5 mg/kg/dose ip x4, listed as cisplatin): 61% | TGD ([1]; cisplatin 0.5 mg/kg/dose ip x4): 13 days | Euthanized ([1]; cisplatin 2 mg/kg/dose ip x4): 41 days | TGI(%) ([1]; cisplatin 2 mg/kg/dose ip x4): 53.8% | TGI(%) ([1]; cisplatin 2 mg/kg/dose ip x4, listed as cisplatin): 54% | TGD ([1]; cisplatin 2 mg/kg/dose ip x4): 9 days | TGD [2, 8]: 4 days | TGI (%) at Day 57 [2, 8]: 35% | TGD [2, 9]: 11 days | TGI (%) at Day 57 [2, 9]: 22%

O=c1[nH]cc(F)c(=O)[nH]1 [5-FU, 5-fluorouracil]
TGD [3, 10]: 4 days | TGI(%) at Day 39 [3, 10]: 5.6% | TGD [3, 11]: 2 days | TGI(%) at Day 39 [3, 11]: 0%

CC(=O)O[C@@]12CO[C@@H]1C[C@H](O)[C@@]1(C)C(=O)[C@H](O)C3=C(C)[C@@H](OC(=O)[C@H](O)[C@@H](NC(=O)OC(C)(C)C)c4ccccc4)C[C@@](O)([C@@H](OC(=O)c4ccccc4)[C@H]21)C3(C)C [Docetaxel, docetaxel]
TGD [4, 12]: 4 days | TGI(%) at Day 25 [4, 12]: 37% | TGD [4, 13]: 4 days | TGI(%) at Day 25 [4, 13]: 52% | TGD [5, 12]: 6 days | TGI(%) at Day 25 [5, 12]: 62% | TGD [5, 13]: 7 days | TGI(%) at Day 25 [5, 13]: 70%
